Test results from patent US20200270309A1, “MALEIMIDE GROUP-MODIFIED ANGIOGENESIS INHIBITOR HM-1 AND USE THEREOF” (NANJING ANJI BIOLOGICAL TECHNOLOGY CO., LTD, priority 2017, published 2020).
Marks after values point to notes of the source that are not given here. Peptide text beside a SMILES is read from it. * marks the point of attachment. X65 = O=C1C=CC(=O)N1c1cccc(CCCCCCCCCCCCC(=O)*)c1; X58 = O=C1C=CC(=O)N1c1cccc(CCCCCCCCCCCC(=O)*)c1; X74 = O=C1C=CC(=O)N1c1cccc(CCCCCCCCCCC(=O)*)c1

Key:
[1] = test system: retinal neovascularization (OIR model); test: Retinal vessels in OIR mice; type: in vivo, C57/B16 mice; conditions: for Area of neovascular plexus (mm^2): dose 0.05 μM in the vitreous chamber on day 13, retinal vessels evaluated on day 17; for Inhibition rate (%): dose 0.05 μM in the vitreous chamber on day 13, retinal vessels evaluated on day 17, vs negative control
In short: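 C57/B16 pups were held in 75% oxygen from postnatal day 7 to 12, then returned to room air. On day 13 they received intravitreal saline or compound. On day 17 perfused vessels were labelled by Texas red tomato agglutinin injected into the left ventricle (5 min circulation) and retinal vasculature assessed.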

HUVECs = test: Transwell migration inhibition on HUVECs; type: cell-based, human; conditions: for Inhibition rate (%): HUVEC migration vs blank control; for Cell migration number (Mean ± SD): HUVECs, transwell, 24 h
[2] = test system: collagen-induced arthritis; test: Mouse collagen-induced arthritis (CIA) animal model; type: in vivo; conditions: DBA/1 mice CIA model, dose 4.0 mg/kg, subcutaneous from day 30, n=10; for Clinical score: highest score 16
[3] = Half-lives and pharmacokinetic parameters of polypeptides vs HM-1; conditions: in vivo; for half-life: T1/2β (half-life)
[4] = test system: xylene-induced ear swelling; test: Xylene-induced mouse ear swelling; type: in vivo; conditions: Kunming mice, injected once a day for 5 days; for Swelling degree (mg) / Swelling degree: right minus left ear piece weight 2 h after xylene; for Inhibition rate (%): xylene-induced ear swelling
In short: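 Kunming mice dosed by injection once daily for 5 days; 1 h after last dose, 0.05 mL xylene applied to right ear, left ear untreated. Mice killed 2 h later; punched ear pieces weighed. Swelling degree = right minus left ear weight; swelling rate = swelling degree/left ear weight ×100%.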

[5] = test system: corneal neovascularization; test: Corneal neovascularization induced by alkali burn in BALB/c mice; type: in vivo; parameters: Inhibition rate (corneal neovascularization): concentration or dose not given beside the values; conditions: day 14 after alkali burn, vitreous injection once a day for 1 week
[6] = test system: human retinal capillary endothelial cells (HRCECs); test: MTT proliferation inhibition on HRCECs; type: cell-based; conditions: 48 h; for A570 nm-A630 nm: mean±SD
In short: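 HRCECs seeded at 3.0×10^4 cells/mL, adhered overnight, then exposed to polypeptide for 48 h at 37 °C, 5% CO2. MTT added 4 h, formazan dissolved in DMSO, absorbance 570/630 nm; PIR (%) = 1 − treated/negative control, mean±SD of three independent runs.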

[7] = test system: choroidal neovascularization; test: Choroidal neovascularization in rats (laser photocoagulation, FFA); type: in vivo; conditions: BN rats
In short: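 Male BN rats aged 6-8 weeks were given 8 krypton-laser spots around the optic disc (647.1 nm, 350 mW, 50 μm, 0.05 s). Once the model was confirmed, groups of 5 got daily intravitreal compound at 0.05 μM or saline for 1 week. FFA followed at 3, 7, 14 and 28 days after dosing.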

[8] = day 3 after administration, total light spot number was 297, 0.05 μM in the vitreous chamber once a day for 1 week
[9] = day 7 after administration, total light spot number was 186, 0.05 μM in the vitreous chamber once a day for 1 week
[10] = day 14 after administration, total light spot number was 137, 0.05 μM in the vitreous chamber once a day for 1 week
[11] = day 28 after administration, total light spot number was 69, 0.05 μM in the vitreous chamber once a day for 1 week

Row | Structure (SMILES) | Area of neovascular plexus (mm^2) [1] [mm^2] | Inhibition rate (%) [1] | Inhibition rate (%) (HUVECs; dose 0.05 μM) | Inhibition rate (%) (HUVECs; dose 0.1 μM) | Inhibition rate (%) (HUVECs; dose 0.2 μM) | Cell migration number (Mean ± SD) (HUVECs; dose 0.05 μM) | Cell migration number (Mean ± SD) (HUVECs; dose 0.1 μM) | Cell migration number (Mean ± SD) (HUVECs; dose 0.2 μM) | Joint swelling degree (mm) [2] [mm] | Left and right paw swelling degree (mm) [2] [mm] | Clinical score [2] | AUC(0-inf) [3] [ng·h/mL] | MRT inf [3] [h] | clearance [3] [mL/min/kg] | half-life [3] [h] | Inhibition rate (%) ([4]; dose 2 mg/kg) | Inhibition rate (%) ([4]; dose 4 mg/kg) | Swelling degree (mg) ([4]; dose 8 mg/kg) | Inhibition rate (%) ([4]; dose 8 mg/kg) | Inhibition rate (corneal neovascularization) [5] [%] | also measured
1 | C[C@H](NC(=O)CNC(=O)[C@H](CCCNC(=N)N)NC(=O)CCCCCCCCCCc1cccc(N2C(=O)C=CC2=O)c1)C(=O)N[C@@H](CC(=O)O)C(=O)N[C@@H](CCCNC(=N)N)C(=O)N[C@@H](C)C(=O)NCC(=O)NCC(=O)NCC(=O)NCC(=O)N[C@@H](CCCNC(=N)N)C(=O)NCC(=O)N[C@@H](CC(=O)O)C(=O)O [X34] (X74-RGADRAGGGGRGD-OH) | 0.120 ± 0.014 | 43.40%* | 47.95 | 52.08 | 53.69 | 557.95 ± 42.69 | 513.64 ± 43.27 | 496.39 ± 56.37 | 0.84 ± 0.13 | 0.72 ± 0.15 | 8.8 ± 1.34 | 27700 ± 8150 | 49.6 ± 10.2 | 0.602 | 34.35 ± 0.26 | 38.04 | 46.07 | 3.2 ± 0.39** mg | 48.64 | 48.36 | Swelling degree (mg) ([4]; dose 2 mg/kg): 3.86 ± 0.43** mg; Swelling degree (mg) ([4]; dose 4 mg/kg): 3.36 ± 0.53** mg; MVD (corneal microvessel density) [5]: 34.72 ± 6.051; Inhibition rate (%) ([6]; dose 0.05 μM): 50.55%*; A570 nm-A630 nm ([6]; dose 0.05 μM): 0.6536 ± 0.08102; Inhibition rate (%) ([6]; dose 0.1 μM): 51.43%**; A570 nm-A630 nm ([6]; dose 0.1 μM): 0.6420 ± 0.08726; Inhibition rate (%) ([6]; dose 0.2 μM): 59.92%*; A570 nm-A630 nm ([6]; dose 0.2 μM): 0.5298 ± 0.07541; CNV Incidence (%) [7, 8]: 52.19%; Leakage Light spot number [7, 8]: 155; CNV Incidence (%) [7, 9]: 47.31%; Leakage Light spot number [7, 9]: 88; CNV Incidence (%) [7, 10]: 45.99%; Leakage Light spot number [7, 10]: 63; CNV Incidence (%) [7, 11]: 42.03%; Leakage Light spot number [7, 11]: 29
2 | C[C@H](NC(=O)CNC(=O)[C@H](CCCNC(=N)N)NC(=O)CCCCCCCCCCCc1cccc(N2C(=O)C=CC2=O)c1)C(=O)N[C@@H](CC(=O)O)C(=O)N[C@@H](CCCNC(=N)N)C(=O)N[C@@H](C)C(=O)NCC(=O)NCC(=O)NCC(=O)NCC(=O)N[C@@H](CCCNC(=N)N)C(=O)NCC(=O)N[C@@H](CC(=O)O)C(=O)O [X35] (X58-RGADRAGGGGRGD-OH) | 0.101 ± 0.005 | 52.36%** | 42.61 | 50.57 | 56.96 | 615.18 ± 57.71 | 529.83 ± 68.02 | 461.34 ± 66.82 | 0.76 ± 0.13 | 0.85 ± 0.14 | 8.78 ± 1.23 | 32000 ± 8090 | 57.1 ± 14.2 | 0.522 | 39.6 ± 0.31 | 10.27 | 23.27 | 3.48 ± 0.28** mg | 44.14 | 44.60 | Swelling degree ([4]; dose 2 mg/kg): 5.59 ± 0.91 mg; Swelling degree (mg) ([4]; dose 4 mg/kg): 4.78 ± 0.64* mg; MVD (corneal microvessel density) [5]: 37.25 ± 4.806; Inhibition rate (%) ([6]; dose 0.05 μM): 43.91%*; A570 nm-A630 nm ([6]; dose 0.05 μM): 0.7413 ± 0.08995; Inhibition rate (%) ([6]; dose 0.1 μM): 56.72%**; A570 nm-A630 nm ([6]; dose 0.1 μM): 0.5720 ± 0.01284; Inhibition rate (%) ([6]; dose 0.2 μM): 57.45%*; A570 nm-A630 nm ([6]; dose 0.2 μM): 0.5624 ± 0.01279; CNV Incidence (%) [7, 8]: 52.19%; Leakage Light spot number [7, 8]: 155; CNV Incidence (%) [7, 9]: 47.85%; Leakage Light spot number [7, 9]: 89; CNV Incidence (%) [7, 10]: 46.72%; Leakage Light spot number [7, 10]: 64; CNV Incidence (%) [7, 11]: 44.93%; Leakage Light spot number [7, 11]: 31
3 | C[C@H](NC(=O)CNC(=O)[C@H](CCCNC(=N)N)NC(=O)CCCCCCCCCCCCc1cccc(N2C(=O)C=CC2=O)c1)C(=O)N[C@@H](CC(=O)O)C(=O)N[C@@H](CCCNC(=N)N)C(=O)N[C@@H](C)C(=O)NCC(=O)NCC(=O)NCC(=O)NCC(=O)N[C@@H](CCCNC(=N)N)C(=O)NCC(=O)N[C@@H](CC(=O)O)C(=O)O [X36] (X65-RGADRAGGGGRGD-OH) | 0.084 ± 0.009 | 60.38%** | 52.07 | 56.76 | 57.92 | 513.79 ± 55.46 | 463.47 ± 50.27 | 451.01 ± 43.85 | 0.74 ± 0.14 | 0.77 ± 0.13 | 8.86 ± 1.23 | 28200 ± 8090 | 50.4 ± 10.1 | 0.592 | 34.9 ± 0.27 | 13.80 | 13.80 | 4.7 ± 0.97* mg | 24.56 | 45.52 | Swelling degree ([4]; dose 2 mg/kg): 5.37 ± 0.84 mg; Swelling degree ([4]; dose 4 mg/kg): 5.37 ± 0.21 mg; MVD (corneal microvessel density) [5]: 36.63 ± 5.284; Inhibition rate (%) ([6]; dose 0.05 μM): 55.25%*; A570 nm-A630 nm ([6]; dose 0.05 μM): 0.5915 ± 0.05135; Inhibition rate (%) ([6]; dose 0.1 μM): 60.38%**; A570 nm-A630 nm ([6]; dose 0.1 μM): 0.5237 ± 0.03194; Inhibition rate (%) ([6]; dose 0.2 μM): 64.71%*; A570 nm-A630 nm ([6]; dose 0.2 μM): 0.4664 ± 0.03733; CNV Incidence (%) [7, 8]: 50.51%; Leakage Light spot number [7, 8]: 150; CNV Incidence (%) [7, 9]: 49.46%; Leakage Light spot number [7, 9]: 92; CNV Incidence (%) [7, 10]: 40.15%; Leakage Light spot number [7, 10]: 55; CNV Incidence (%) [7, 11]: 43.48%; Leakage Light spot number [7, 11]: 30
